# Like-named read-outs stand apart in the source and are kept apart here.
# Biological target: T1, Androgen Receptor (Homo sapiens, UniProt P10275)
# T1 construct: endogenous in cells; host or cells: VCaP cells
# T1 sequence (P10275 1-920): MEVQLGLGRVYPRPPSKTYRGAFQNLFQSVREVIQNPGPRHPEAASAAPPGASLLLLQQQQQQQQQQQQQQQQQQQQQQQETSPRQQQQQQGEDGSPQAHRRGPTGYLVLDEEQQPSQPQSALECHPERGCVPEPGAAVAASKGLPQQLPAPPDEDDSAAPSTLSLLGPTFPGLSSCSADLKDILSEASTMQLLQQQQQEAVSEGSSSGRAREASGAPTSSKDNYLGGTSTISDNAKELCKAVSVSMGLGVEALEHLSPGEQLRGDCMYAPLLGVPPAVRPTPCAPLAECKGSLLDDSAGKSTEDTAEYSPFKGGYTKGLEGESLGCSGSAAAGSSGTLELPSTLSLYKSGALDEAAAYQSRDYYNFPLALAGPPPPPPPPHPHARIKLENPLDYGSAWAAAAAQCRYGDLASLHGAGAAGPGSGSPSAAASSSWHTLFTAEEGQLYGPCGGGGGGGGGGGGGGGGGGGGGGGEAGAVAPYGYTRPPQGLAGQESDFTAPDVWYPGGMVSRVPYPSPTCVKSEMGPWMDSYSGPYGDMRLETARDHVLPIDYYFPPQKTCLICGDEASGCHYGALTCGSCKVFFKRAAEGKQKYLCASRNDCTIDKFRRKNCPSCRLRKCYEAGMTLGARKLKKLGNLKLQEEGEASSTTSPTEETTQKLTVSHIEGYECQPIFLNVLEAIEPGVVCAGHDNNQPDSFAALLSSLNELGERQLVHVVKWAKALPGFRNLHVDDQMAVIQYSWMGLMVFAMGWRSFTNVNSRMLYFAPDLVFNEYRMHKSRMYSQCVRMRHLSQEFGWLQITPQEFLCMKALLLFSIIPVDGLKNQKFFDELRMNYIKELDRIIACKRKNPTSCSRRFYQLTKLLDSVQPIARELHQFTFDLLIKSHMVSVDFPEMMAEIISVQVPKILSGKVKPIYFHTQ
# Assay: Androgen Receptor ELISA assay (PathScan AR ELISA) in VCaP cells: AR degradation, Dmax and DC50
# Format: cell-based
# Conditions: for Dmax: VCaP; for DC50: read-out: VCaP DC50
# Method in brief: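 VCaP cells in phenol red-free RPMI with 5% charcoal-stripped FBS were grown at least 3 days, then given compound as 7 half-log doses in 0.1% DMSO with 0.1 nM R1881 for 24 h. Lysates went into a sandwich AR ELISA with TMB read at 450 nm.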
# [1] = VCaP cells, Table 36, read-out: VCaP Dmax (%)
# [2] = read-out: VCaP Dmax (%), VCaP cells, Table 36
# [3] = VCaP cells, Table 35, read-out: VCaP Dmax (%)
compound,measurement,setting,value
Cc1ncoc1-c1ccc(CNC(=O)[C@@H]2C[C@@H](O)CN2C(=O)[C@@H](NC(=O)COCCCOCCCCOc2ccc(N3C(=S)N(c4ccc(C#N)c(Cl)c4)C(=O)C3(C)C)cc2)C(C)C)cc1 [Example 39],Dmax,read-out: VCaP Dmax (%),26 to 50%
same,DC50,"concentration that caused 50% Androgen Receptor degradation, VCaP cells",< 0.05 µM
"Cc1ncsc1-c1ccc([C@H](NC(=O)[C@@H]2C[C@@H](O)CN2C(=O)[C@@H](NC(=O)CN2CCN(CCCc3ccc(C(=O)N[C@H]4C(C)(C)[C@H](Oc5ccc(C#N)c(C(F)(F)F)c5)C4(C)C)cc3)CC2)C(C)(C)C)C2COC2)cc1 [Example 712, (2S,4R)-1-((S)-2-(2-(4-(3-(4-(((1r,3r)-3-(4-cyano-3-(trifluoromethyl)phenoxy)-2,2,4,4-tetramethylcyclobutyl)carbamoyl)phenyl)propy)piperazin-1-yl)acetamido)-3,3-dimethylbutanoyl)-4-hydroxy-N-((R)-(4-(4-methylthiazol-5-yl)phenyl)(oxetan-3-yl)methyl)pyrrolidine-2-carboxamide]",DC50,"VCaP cells, Table 36",> 0.501 µM
same,Dmax,read-out: VCaP Dmax (%),< 25%
"Cc1ncsc1-c1ccc(CNC(=O)[C@@H]2C[C@@H](O)CN2C(=O)[C@@H](NC(=O)CN2CCN(CCOc3ccc(C(=O)N[C@H]4C(C)(C)[C@H](Oc5ccc(C#N)c(Cl)c5)C4(C)C)cc3)CC2)C(C)(C)C)cc1 [Example 645, (2S,4R)-1-((S)-2-(2-(4-(2-(4-(((1r,3r)-3-(3-chloro-4-cyanophenoxy)-2,2,4,4-tetramethylcyclobutyl)carbamoyl)phenoxy)eth-yl)piperazin-1-yl)acetamido)-3,3-dimethylbutanoyl)-4-hydroxy-N-(4-(4-methylthiazol-5-yl)benzyl)pyrrolidine-2-carboxamide]",DC50,"VCaP cells, Table 36",< 0.05 µM
same,Dmax,[1],51 to 70%
"Cc1ncsc1-c1ccc([C@H](C)NC(=O)[C@@H]2C[C@@H](O)CN2C(=O)[C@@H](NC(=O)COCCN2CCN(c3ccc(C(=O)N[C@H]4C[C@H](Oc5ccc(C#N)c(Cl)c5)C4)cn3)CC2)C(C)(C)C)cc1 [Example 765, N-((1r,3r)-3-(3-chloro-4-cyanophenoxy)cyclobutyl)-6-(4-(2-(2-(((S)-1-((2S,4R)-4-hydroxy-2-(((S)-1-(4-(4-methylthiazol-5-yl)phenyl)ethyl)carbam-oyl)pyrrolidin-1-yl)-3,3-dimethyl-1-oxobutan-2-yl)amino)-2-oxoethoxy)ethyl)pipera-zin-1-yl)nicotinamide]",DC50,"VCaP cells, Table 36",> 0.501 µM
same,Dmax,[1],< 25%
"Cc1ncsc1-c1ccc([C@H](C)NC(=O)[C@@H]2C[C@@H](O)CN2C(=O)[C@@H](NC(=O)[C@H](C)OCCN2CCN(c3ccc(C(=O)N[C@H]4C(C)(C)[C@H](Oc5ccc(C#N)c(Cl)c5)C4(C)C)cc3)CC2)C(C)(C)C)cc1 [Example 664, (2S,4R)-1-((S)-2-((S)-2-(2-(4-(4-(((1r,3r)-3-(3-chloro-4-cyanophenoxy)-2,2,4,4-tetramethylcyclobutyl)carbamoyl)phenyl)piper-azin-1-yl)ethoxy)propanamido)-3,3-dimethylbutanoyl)-4-hydroxy-N-((S)-1-(4-(4-methylthiazol-5-yl)phenyl)ethyl)pyrrolidine-2-carboxamide]",DC50,"VCaP cells, Table 36",< 0.05 µM
same,Dmax,[2],51 to 70%
CC(C)(C)[C@H](NC(=O)COCCCCCNc1ccc(C(=O)N[C@H]2C(C)(C)[C@H](Oc3ccc(C#N)c(Cl)c3)C2(C)C)cc1)C(=O)N1C[C@H](O)C[C@H]1C(=O)NCc1ccc(-c2ccccn2)cc1 [Example 536],DC50,"VCaP cells, Table 35",< 0.05 µM
same,Dmax,[3],26 to 50%
"Cc1ncsc1-c1ccc([C@H](C)NC(=O)[C@@H]2C[C@@H](O)CN2C(=O)[C@@H](NC(=O)CN2CCN(CCCCN3CCN(c4ccc(C(=O)N[C@H]5C(C)(C)[C@H](Oc6ccc(C#N)c(Cl)c6)C5(C)C)cn4)CC3)CC2)C(C)(C)C)cc1 [Example 804, N-((1r,3r)-3-(3-chloro-4-cyanophenoxy)-2,2,4,4-tetramethylcyclobutyl)-6-(4-(4-(4-(2-(((S)-1-((2S,4R)-4-hydroxy-2-(((S)-1-(4-(4-methylthiazol-5-yl)phenyl)ethyl)carbamoyl)pyrrolidin-1-yl)-3,3-dimethyl-1-oxobutan-2-yl)amino)-2-oxoethyl)piperazin-1-yl)butyl)piperazin-1-yl)nicotinamide]",DC50,"VCaP cells, Table 36",< 0.05 µM
same,Dmax,[2],51 to 70%
"Cc1ncsc1-c1ccc([C@H](C)NC(=O)[C@@H]2C[C@@H](O)CN2C(=O)[C@H](c2ncc(CCCN3CCN(c4ccc(C(=O)NC5C(C)(C)C(Oc6ccc(C#N)c(Cl)c6)C5(C)C)cn4)CC3)n2C)C(C)C)cc1 (stereo partly drawn) [Example 702, N-((1r,3r)-3-(3-chloro-4-cyanophenoxy)-2,2,4,4-tetramethylcyclobutyl)-6-(4-(3-(2-((S)-1-((2S,4R)-4-hydroxy-2-(((S)-1-(4-(4-methylthiazol-5-yl)phenyl)ethyl)carbam-oyl)pyrrolidin-1-yl)-3-methyl-1-oxobutan-2-yl)-1-methyl-1H-imidazol-5-yl)propyl)piperazin-1-yl)nicotinamide]",VCaP Dmax (%),"VCaP cells, Table 36",+ (Dmax ≤ 25%)
same,DC50,"VCaP cells, Table 36",> 0.501 µM
"Cc1ncsc1-c1ccc(CNC(=O)[C@@H]2C[C@@H](O)CN2C(=O)[C@@H](NC(=O)COCCCCOc2ccc(-c3ccc(N4C(=S)N(c5ccc(C#N)c(C(F)(F)F)c5)C(=O)C45CCC5)cc3)cc2)C(C)(C)C)cc1 [Example 120, (2S,4R)-1-[(2S)-2-(2-{4-[4-(4-{7-[4-cyano-3-(trifluoromethyl)phenyl]-8-oxo-6-sulfanylidene-5,7-diazaspiro[3.4]octan-5-yl}phenyl)phenoxy]butoxy}acetamido)-3,3-dimethylbutanoyl]-4-hydroxy-N-{[4-(4-methyl-1,3-thiazol-5-yl)phenyl]methyl}pyrrolidine-2-carboxamide]",Dmax,read-out: VCaP Dmax (%),> 71%
same,DC50,"concentration that caused 50% Androgen Receptor degradation, VCaP cells (Table 32)",< 0.05 µM
Cc1ncsc1-c1ccc(CNC(=O)[C@@H]2C[C@@H](O)CN2C(=O)[C@@H](NC(=O)COC[C@@H](O)[C@H](O)COc2ccc(C(=O)N[C@H]3C(C)(C)[C@H](Oc4ccc(C#N)c(Cl)c4)C3(C)C)cc2)C(C)(C)C)cc1 [Example 563],DC50,"VCaP cells, Table 35",< 0.05 µM
same,Dmax,[3],51 to 70%
"COc1cc(C#N)ccc1[C@H](C)NC(=O)[C@@H]1C[C@@H](O)CN1C(=O)[C@@H](NC(=O)COCCN1CCN(c2ccc(C(=O)N[C@H]3C(C)(C)[C@H](Oc4ccc(C#N)c(Cl)c4)C3(C)C)cn2)CC1)C(C)(C)C [Example 785, N-((1r,3r)-3-(3-chloro-4-cyanophenoxy)-2,2,4,4-tetramethylcyclobutyl)-6-(4-(2-(2-(((S)-1-((2S,4R)-2-(((S)-1-(4-cyano-2-methoxyphenyl)ethyl)carbamoyl)-4-hydroxypyrrolidin-1-yl)-3,3-dimethyl-1-oxobutan-2-yl)amino)-2-oxoethoxy)ethyl)piperazin-1-yl)nicotinamide]",DC50,"VCaP cells, Table 36",< 0.05 µM
same,Dmax,[1],51 to 70%
"CC(C)(C)[C@H](NC(=O)COCCN1CCN(c2ccc(C(=O)N[C@H]3C(C)(C)[C@H](Oc4ccc(C#N)c(Cl)c4)C3(C)C)cn2)CC1)C(=O)N1C[C@H](O)C[C@H]1C(=O)NCc1ccc(C2CCOCC2)cc1 [Example 760, N-((1r,3r)-3-(3-chloro-4-cyanophenxoy)-2,2,4,4-tetramethylcyclobutyl) 6-(4-(2-(2-(((S)-1-((2S,4R)-4-hydroxy-2-((4-(tetrahydro-2H-pyran-4-yl)benzyl)carbamoyl)pyrrolidin-1-yl)-3,3-dimethyl-1-oxobutan-2-yl)amino)-2-oxoethoxy)ethyl)pipera-zin-1-yl)nicotinamide]",DC50,"VCaP cells, Table 36",> 0.501 µM
same,Dmax,[1],26 to 50%

# From patent US11427548B2 (Arvinas Operations, Inc., priority 2015, dated 2022)
